Article PMC10253357, “Acceptors and Effectors Alter Substrate Inhibition Kinetics of a Plant Glucosyltransferase NbUGT72AY1 and Its Mutants” (International Journal of Molecular Sciences, 2023)
One block for each molecule: values may come before it.

Experiments:
[1] = biological target: T1, NbUGT72AY1 (Nicotiana benthamiana, UniProt A0A8K1ZRH3); test: UDP-Glo glucosyltransferase assay, UDP release; assay type: biochemical; details: UDP-glucose donor, Tris pH 7.5, 40 °C
T1 construct: pGEX-4T-1 vector (GST fusion expected), expressed in E. coli BL21(DE3) pLysS
T1 sequence (A0A8K1ZRH3 1-477): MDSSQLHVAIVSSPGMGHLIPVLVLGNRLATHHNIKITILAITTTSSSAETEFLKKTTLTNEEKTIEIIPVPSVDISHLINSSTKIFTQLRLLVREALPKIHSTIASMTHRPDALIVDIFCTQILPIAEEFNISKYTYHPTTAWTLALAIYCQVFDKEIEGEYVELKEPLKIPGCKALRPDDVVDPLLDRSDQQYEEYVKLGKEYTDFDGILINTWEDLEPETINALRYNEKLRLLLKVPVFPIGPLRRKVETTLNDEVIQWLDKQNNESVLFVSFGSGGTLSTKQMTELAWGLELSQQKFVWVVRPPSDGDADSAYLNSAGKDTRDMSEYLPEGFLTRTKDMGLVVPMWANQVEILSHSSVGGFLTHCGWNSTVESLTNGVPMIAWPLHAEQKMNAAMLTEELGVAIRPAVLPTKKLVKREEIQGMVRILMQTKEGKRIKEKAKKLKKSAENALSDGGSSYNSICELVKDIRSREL

[2] = biological target: T1, NbUGT72AY1; test: UDP-Glo glucosyltransferase assay, UDP release; assay type: biochemical; details: UDP-glucose donor; Tris pH 7.5, 40 °C; fit with substrate inhibition and Hill coefficients
[3] = biological target: T1, NbUGT72AY1; test: UDP-Glo assay with vanillin, effector added; assay type: biochemical; details: vanillin acceptor, UDP-glucose donor, Tris pH 7.5, 40 °C
[4] = biological target: T2, chimera A; test: UDP-Glo glucosyltransferase assay, UDP release; assay type: biochemical, Nicotiana benthamiana; details: substrate inhibition constant, uncompetitive model with Hill coefficients; UDP-glucose donor; Tris pH 7.5, 40 °C
T2 construct: gene UGT72AY1; NbUGT72AY1 (MT945401) with a segment of StUGT72AY2 from Solanum tuberosum; pGEX-4T-1, E. coli

[5] = substrate: COc1ccccc1O; test: UDP-Glo glucosyltransferase assay, UDP release; assay type: biochemical, Nicotiana benthamiana; details: UDP-glucose donor, Tris pH 7.5, 40 °C, fit with substrate inhibition and Hill coefficients
[6] = substrate: O=c1c(O)c(-c2ccc(O)cc2)oc2cc(O)cc(O)c12; test: UDP-Glo glucosyltransferase assay, UDP release; assay type: biochemical, Nicotiana benthamiana; details: UDP-glucose donor, Tris pH 7.5, 40 °C, two products (3-O- and 7-O-glucoside)
[7] = substrate: Oc1ccc(O)cc1; test: UDP-Glo glucosyltransferase assay, UDP release; assay type: biochemical, Nicotiana benthamiana; details: UDP-glucose donor, Tris pH 7.5, 40 °C, Michaelis-Menten, no substrate inhibition
[8] = substrate inhibition constant, uncompetitive model with Hill coefficients
[9] = substrate inhibition constant, complete (Vi = 0), uncompetitive model with Hill coefficients

Molecule: Cc1ccccc1O [o-cresol]
Km [2]: 17 ± 9 µM
Ki [1, 9]: 1368 ± 165 µM

Molecule: CCCCCCCC/C=C\CCCCCCCC(=O)O [oleic acid]
UDP-Glo assay with vanillin, effector added ([3]; effector at 20 and 100 µM): increased catalytic activity of NbUGT72AY1, noted after addition of stearic and oleic acid

Molecule: CCCCCCCCCCCCCCCCCC(=O)O [stearic acid]
UDP-Glo assay with vanillin, effector added ([3]; effector at 20 and 100 µM): Saturated stearic acid promoted the glycosylation activity of NbUGT72AY1 with vanillin

Molecule: CC1=CCCC(C)(C)C1/C=C/C(C)O (stereo not drawn) [α-ionol]
UDP-Glo assay with vanillin, effector added ([3]; effector at 100 and 200 µM): addition of α- and β-ionol to the reaction resulted in a concentration-dependent increase in Ki

Molecule: CC1=C(/C=C/C(C)O)C(C)(C)CCC1 (stereo not drawn) [β-ionol]
UDP-Glo assay with vanillin, effector added ([3]; effector at 100 and 200 µM): addition of α- and β-ionol to the reaction resulted in a concentration-dependent increase in Ki

B1: NbUGT72AY1 (Nicotiana benthamiana) (protein)
chain: MDSSQLHVAIVSSPGMGHLIPVLVLGNRLATHHNIKITILAITTTSSSAETEFLKKTTLTNEEKTIEIIPVPSVDISHLINSSTKIFTQLRLLVREALPKIHSTIASMTHRPDALIVDIFCTQILPIAEEFNISKYTYHPTTAWTLALAIYCQVFDKEIEGEYVELKEPLKIPGCKALRPDDVVDPLLDRSDQQYEEYVKLGKEYTDFDGILINTWEDLEPETINALRYNEKLRLLLKVPVFPIGPLRRKVETTLNDEVIQWLDKQNNESVLFVSFGSGGTLSTKQMTELAWGLELSQQKFVWVVRPPSDGDADSAYLNSAGKDTRDMSEYLPEGFLTRTKDMGLVVPMWANQVEILSHSSVGGFLTHCGWNSTVESLTNGVPMIAWPLHAEQKMNAAMLTEELGVAIRPAVLPTKKLVKREEIQGMVRILMQTKEGKRIKEKAKKLKKSAENALSDGGSSYNSICELVKDIRSREL
notes: pGEX-4T-1 vector (GST fusion expected), expressed in E. coli BL21(DE3) pLysS
Km [5]: 179 ± 44 µM
Km [6]: 15 ± 3 µM
Km [7]: 331 ± 25 µM

Next, values leading:

Ki [1, 8]: 345 ± 58 µM
Molecule: CCc1ccc(O)c(OC)c1 [ethylguaiacol]

Ki [1, 8]: 62 ± 17 µM
Molecule: C=CCc1ccc(O)c(OC)c1 [eugenol]

Ki [1, 9]: 1022 ± 69 µM
Molecule: COc1ccccc1O [guaiacol]

Ki ([1]; substrate inhibition constant (partial uncompetitive model with Hill coefficients)): 16 ± 1 µM
Molecule: COc1cc2ccc(=O)oc2cc1O [scopoletin]

Ki [4]: 1437 ± 138 µM
Ki [1, 9]: 1398 ± 283 µM
Molecule: COc1cc(/C=C/C=O)cc(OC)c1O [sinapaldehyde]

Ki ([1]; substrate inhibition constant, partial uncompetitive model with Hill coefficients (n = 1, x = 2), no effector): 117 ± 24 µM
Molecule: COc1cc(C=O)ccc1O [vanillin]
